Data reported in publication PMC11238337, “Crafting Stable Antibiotic Nanoparticles via Complex Coacervation of Colistin with Block Copolymers” (Biomacromolecules, 2024).

What was measured:
[1] = test system: Pseudomonas fluorescens (DSM20030); assay: Disk diffusion assay (DDA); assay type: cell-based; details: 3.0 μg colistin per disk, 24 h at 37 °C
Experimental: (§1) In the DDA, the susceptibility of Escherichia coli (DSM613), Serratia indica (NCIMB 8869), Pseudomonas fluorescens (DSM20030), A. vinelandii (DSM2290), and Bacillus subtilis (DSM10) was tested. Sterile filter disks (VWR) were impregnated (using an automatic pipette) with 3.0 μg of colistin from either colistin sulfate or colistin-C3Ms (at f+ = 0.50) in a concentration above the CMC (at 1.0 mg/mL) and dried under sterile air. Bacterial plates were prepared by freshly pouring bacterial medium until it set. Second, a layer of LB medium, that was premixed with 10 μL of bacteria from overnight cultures, was added. Then, the disks were added, and the plates were incubated for 24 h at 37 °C. The sizes of the inhibition zones were measured and averaged. Experiments were performed in triplicate. With the agar broth dilution testing, it was possible to determine the MIC50 values. LB liquid media in test tubes containing equal amounts of E. coli culture (10 μL of bacteria from overnight cultures to 5 mL of media) was mixed with either colistin or colistin-C3Ms with equal colistin for a concentration between 0.0 and 50 μg/mL. The test tubes were incubated for 24 h at 37 °C and their turbidity was measured with a McFarland turbidimeter. The agar broth dilution experiments were done in duplicate. To determine the MIC50 values, curves were averaged and then fitted with a sigmoid function.

[2] = test system: Serratia indica (NCIMB 8869); assay: Disk diffusion assay (DDA); assay type: cell-based; details: 3.0 μg colistin per disk, 24 h at 37 °C
Experimental: as §1

A. vinelandii (DSM2290) = assay: Disk diffusion assay (DDA); assay type: cell-based; details: 3.0 μg colistin per disk, 24 h at 37 °C
Experimental: as §1

[3] = test system: Escherichia coli (DSM613); assay: Disk diffusion assay (DDA); assay type: cell-based; details: 3.0 μg colistin per disk, 24 h at 37 °C, triplicate, averaged
Experimental: as §1

[4] = test system: Mesenchymal stem cells (MSC); assay: Toxicity assay (LDH activity, caspase-3 level in medium); assay type: cell-based, human; details: 24 h, 0.7 mg/mL colistin
Experimental: Human embryonic kidney (HEK 293 cells) (ATCC, CRL-1573) were cultured in Dulbecco’s modified Eagle medium (DMEM), low glucose (Sigma Aldrich) supplemented with 100 U/mL penicillin and 100 μg/mL streptomycin (15140-122; Gibco, Waltham), 1% GlutaMAX (35050; Gibco), and 20% fetal bovine serum (F9665; Sigma Aldrich). Mesenchymal stem cells (MSC, PT-2501; Lonza) were cultured in Mesenchymal Stem Cell Basel Medium (PT-3238; Lonza)) supplemented with MSCGM SingleQuots (PT-4105; Lonza). Human gingival keratinocytes (HGK) (PCS-200-014; ATCC) were cultured in Dermal Cell Basal Medium (PCS-200-030; ATCC) supplemented with Keratinocytes Growth Kit (PCS-200-040; ATCC). Human umbilical cord endothelial cells (HUVEC, 200p-05n; Cell Applications) were cultured in Endothelial Cell Growth Medium (211-500; Cell Applications). The cell types were seeded in 12-well culture-treated plates at a density of 4 × 10^4 cells/cm^2. Upon confluency (set at time point 0), the cells were exposed to cell-specific growth medium containing formulations with a concentration of 1.0 mg/mL total concentration (0.7 mg/mL colistin) of f+ = 0.50 C3Ms or equivalent concentrations of colistin, and polymer as a control. […] LDH activity in the cell culture media was evaluated using a cytotoxicity detection kit (11644793001; Roche). […]

subtilisin = target: T1, subtilisin (Bacillus licheniformis, UniProt P00780); assay: Enzymatic breakdown susceptibility, SAXS read-out; assay type: in vitro ADME; details: 24 h at 37 °C
T1 construct: purchased Sigma Aldrich
T1 sequence (P00780 106-379): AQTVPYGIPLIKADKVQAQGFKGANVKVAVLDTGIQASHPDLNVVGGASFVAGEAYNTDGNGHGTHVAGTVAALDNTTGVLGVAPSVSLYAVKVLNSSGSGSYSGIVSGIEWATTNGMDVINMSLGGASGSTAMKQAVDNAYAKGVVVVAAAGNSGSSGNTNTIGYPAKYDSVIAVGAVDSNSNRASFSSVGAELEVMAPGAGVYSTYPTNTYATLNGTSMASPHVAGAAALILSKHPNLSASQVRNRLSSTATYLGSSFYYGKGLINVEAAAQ
Experimental: (§3) The enzymatic breakdown susceptibility was analyzed by adding proteinase K (3.4.21.64; Sigma Aldrich), subtilisin (3.4.21.62; Sigma Aldrich), and trypsin (3.4.21.4; Sigma Aldrich) to either colistin (at 3.4 mg/mL) or C3Ms at f+ = 0.50 (total concentration 5.0 mg/mL) at their suppliers’ recommended concentration/ratio for optimized breakdown (molar ratios of enzyme:colistin ≈ 1:130 for proteinase K, ≈ 1:70 for subtilisin and ≈ 1:180 for trypsin). We assessed the difference in susceptibility between noncomplexed colistin and C3Ms. Colistin solution was incubated with enzymes for 24 h at 37 °C, after which polymer solution (kept 24 h at 37 °C) was added while in the other case, premade C3Ms were incubated with enzymes for 24 h at 37 °C. These samples were analyzed using SAXS and modeled, including enzyme scattering (using the Debye form factor since the scattering was too small to use a prolate/oblate ellipsoid form factor, eq 8) to monitor the molecular weight of the complex coacervates after exposure to enzyme degradation.

[5] = test system: Human embryonic kidney (HEK 293 cells); assay: Toxicity assay (LDH activity, caspase-3 level in medium); assay type: cell-based
Experimental: (§2) Human embryonic kidney (HEK 293 cells) (ATCC, CRL-1573) were cultured in Dulbecco’s modified Eagle medium (DMEM), low glucose (Sigma Aldrich) supplemented with 100 U/mL penicillin and 100 μg/mL streptomycin (15140-122; Gibco, Waltham), 1% GlutaMAX (35050; Gibco), and 20% fetal bovine serum (F9665; Sigma Aldrich). Mesenchymal stem cells (MSC, PT-2501; Lonza) were cultured in Mesenchymal Stem Cell Basel Medium (PT-3238; Lonza)) supplemented with MSCGM SingleQuots (PT-4105; Lonza). Human gingival keratinocytes (HGK) (PCS-200-014; ATCC) were cultured in Dermal Cell Basal Medium (PCS-200-030; ATCC) supplemented with Keratinocytes Growth Kit (PCS-200-040; ATCC). Human umbilical cord endothelial cells (HUVEC, 200p-05n; Cell Applications) were cultured in Endothelial Cell Growth Medium (211-500; Cell Applications). The cell types were seeded in 12-well culture-treated plates at a density of 4 × 10^4 cells/cm^2. Upon confluency (set at time point 0), the cells were exposed to cell-specific growth medium containing formulations with a concentration of 1.0 mg/mL total concentration (0.7 mg/mL colistin) of f+ = 0.50 C3Ms or equivalent concentrations of colistin, and polymer as a control. The medium was changed for both control cells and stimulated cells every two days, 24 h before the harvest of the medium to ensure the same window of accumulated cell-secreted factors in the media. Cytotoxicity assays on lactate dehydrogenase (LDH) activity and caspase-3 level were performed at 24, 48, and 72 h and executed in triplicate. LDH activity in the cell culture media was evaluated using a cytotoxicity detection kit (11644793001; Roche). In short, 50 μL of the collected supernatant was mixed with 50 μL of the reaction mixture and incubated in a dark room at room temperature for 30 min.

[6] = test system: Human gingival keratinocytes (HGK); assay: as above; assay type: cell-based; details: 24 h; 0.7 mg/mL colistin
Experimental: as §2

E. coli = assay: Agar broth dilution testing for MIC50 (turbidity); assay type: cell-based, Escherichia coli; details: LB liquid media, 0.0-50 μg/mL colistin, 24 h at 37 °C, McFarland turbidity, duplicate, sigmoid fit; all concentrations below the CMC
Experimental: as §1

[7] = test system: Bacillus subtilis (DSM10); assay: Disk diffusion assay (DDA), control strain; assay type: cell-based; details: 3.0 μg colistin per disk, 24 h at 37 °C; Gram-positive negative control
Experimental: as §1

trypsin = assay: Enzymatic breakdown susceptibility, SAXS read-out; details: 24 h at 37 °C, enzyme:colistin ≈ 1:180
Experimental: as §3

proteinase K = target: T2, proteinase K (Parengyodontium album, UniProt P06873); assay: Enzymatic breakdown susceptibility, SAXS read-out; assay type: in vitro ADME; details: 24 h at 37 °C
T2 construct: purchased Sigma Aldrich
T2 sequence (P06873 106-384): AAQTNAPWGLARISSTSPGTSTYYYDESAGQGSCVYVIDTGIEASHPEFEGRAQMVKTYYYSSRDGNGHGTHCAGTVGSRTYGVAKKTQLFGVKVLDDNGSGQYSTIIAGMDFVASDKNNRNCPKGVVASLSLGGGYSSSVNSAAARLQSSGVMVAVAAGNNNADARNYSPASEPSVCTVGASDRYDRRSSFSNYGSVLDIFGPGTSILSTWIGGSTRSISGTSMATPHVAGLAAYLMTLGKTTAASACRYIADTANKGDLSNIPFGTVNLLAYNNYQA
Experimental: as §3

colistin sulfate
inhibition zone, result in words [1]: not visibly affected
inhibition zone, result in words [2]: grew back over the inhibition zones
inhibition zone, result in words (A. vinelandii (DSM2290)): immeasurable small inhibition zones
size of inhibition zone (ΔR) [3]: 1.9 ± 0.1 mm
caspase-3 level versus control [4]: no significant difference
LDH activity, fold change of control ([4]; mean of 3): 2 fold
Mw of complex coacervates after subtilisin degradation (subtilisin; enzyme:colistin ≈ 1:70, colistin 3.4 mg/mL digested then complexed with polymer (without C3M protection) or premade C3Ms 5.0 mg/mL digested (with C3M protection), SAXS fit): 0.042 MDa
factor of reduction of Mw of complex coacervates by subtilisin (subtilisin; versus untreated C3Ms): ≈ 50
LDH activity versus control ([5]; 24, 48, 72 h, 0.7 mg/mL colistin): no significant differences
caspase-3 level, fold change of control ([5]; day one (24 h), 0.7 mg/mL colistin (1.0 mg/mL total for C3Ms), mean of 3): up to 3 fold
LDH (necrosis), result in words [6]: caused necrosis (LDH)
caspase-3 (apoptosis), result in words [6]: apoptosis (caspase-3)
MIC50 (E. coli): 1.5 ± 0.1 µg/mL
inhibition zone, result in words [7]: no inhibition zones could be observed
breakdown by trypsin, result in words (trypsin): ineffective in breaking down colistin
Mw of complex coacervates after proteinase K degradation (proteinase K; enzyme:colistin ≈ 1:130, colistin 3.4 mg/mL digested then complexed with polymer (without C3M protection) or premade C3Ms 5.0 mg/mL digested (with C3M protection), SAXS fit): 0.13 MDa
factor of reduction of average Mw of complex coacervates by proteinase K (proteinase K; versus untreated C3Ms): ≈ 20
